In experiment [1] the test system is dopaminergic neurons in the VTA. Kind of experiment: Slice electrophysiology, spontaneous firing rate in the ventral tegmental area (current clamp). Type of experiment: cell-based, mouse. The following applies: for spike frequency F of dopaminergic neurons: bath application 10 μM. As to the method: Horozontal slices (250 μm thick, VT1000 vibratome, Leica) of the midbrain were prepared from TAAR1 knock-out and littermate wild-type mice 25-60 days of age. Slices were cooled in artificial cerebrospinal fluid (ACSF) containing in mM: 119 NaCl, 2.5 KCl, 1.3 MgCl2, 2.5 CaCl2, 1.0 NaH2PO4, 26.2 NaHCO3 and 11 glucose. Slices were continuously bubbled with 95% O2 and 5% CO2 and transferred after 1 h to the recording chamber superfused (1.5 ml/min) with ACSF at 32-34° C. The VTA was identified as the region medial to the medial terminal nucleus of the accessory optical tract. Visualized whole-cell current-clamp recording techniques were used to measure the spontaneous firing rate and holding currents of neurons. […] Dopaminergic neurons were identified by a large Ih current. The internal solution contained in mM: 140 potassium gluconate, 4 NaCl, 2 MgCl2, 1.1 EGTA, 5 HEPES, 2 Na2ATP, 5 sodium creatine phosphate and 0.6 Na2GTP; the pH was adjusted to 7.3 with KOH. Data were obtained with an Axopatch 200B (Axon Instruments, Union City, Calif., USA), filtered at 2 kHz and digitized at 10 kHz, acquired and analyzed with pClamp9 (Axon Instruments, Union City, Calif., USA). Values are expressed as mean±sem. For statistical comparisons we used the Kolmogorov-Smirnov test. The level of significance was set at P=0.05.

The subject of experiment [2] is TAAR1^+/+ and TAAR1^LacZ/LacZ mice. Kind of experiment: Locomotor activity after d-amphetamine challenge (Digiscan activity monitor). Type of experiment: in vivo, mouse. Conditions: 2.5 mg/kg i.p. As to the method: Locomotor activity. A computerized Digiscan 16 Animal Activity Monitoring System (Omnitech Electronics, Colombus, Ohio) was used to quantitate spontaneous locomotor activity. Data were obtained simultaneously from eight Digiscan activity chambers placed in a soundproof room with a 12 hr light/dark cycle. All tests were performed during the light phase (6 a.m. to 6 p.m.). Each activity monitor consisted of a Plexiglas box (20×20×30.5 cm) with sawdust bedding on the floor surrounded by invisible horizontal and vertical infrared sensor beams. The cages were connected to a Digiscan Analyzer linked to a PC that constantly collected the beam status information. With this system, different behavioral parameters could be measured, such as horizontal and vertical activity, total distance travelled (in cm), and stereotypies. The mice were tested via a pseudo-Latin squares design […] with at least a 10-day interval between two consecutive test sessions. […] Locomotor activity was recorded for 90 min starting immediately after the mice were placed in the cages.
Statistics. Behavioral observations were recorded as mean values SE and analyzed with an unpaired t test. Locomotor activity data (total distance) were analyzed with a two-factor (Genotype and Dose) ANOVA with repeated measures. […]

Experiment [3] has the same test system. Description: In vivo microdialysis of extracellular biogenic amines in the striatum after d-amphetamine. Also on record: species or system mouse. As to the method:
Four months old male mice were used for these experiments. The procedures used for the experiments described in this report received prior approval from the City of Basel Cantonal Animal Protection Committee based on adherence to federal and local regulations on animal maintenance and testing.
Forty-five minutes before anesthesia mice received subcutaneously 0.075 mg/kg of buprenorfine. Mice were then anesthetized with isoflurane and placed in a stereotaxic device equipped with dual manipulators arms and an anesthetic mask. Anesthesia was maintained with isoflurane 0.8-1.2% (v/v; support gas oxygen/air, 2:1). The head was shaved and the skin was cut along the midline to expose the skull. A small bore hole was made in the skull to allow the stereotaxical insertion of the microdialysis probe (vertical probe carrying a 2 mm polyacrilonitrile dialysis membrane; Brains On-line, Groningen, The Netherlands) in the striatum (coordinates: A 0.9 mm, L-1.8 mm, V-4.6 mm). The probe was cemented into place using binary dental cement. Once the cement was firm, the wound was closed with silk thread for suture (Silkam) the animal was removed from the stereotaxic instrument and returned to its cage. At the end of the surgery and 24 hrs later mice were treated with Meloxicam 1 mg/kg sc. The body weight of the animals was measured before the surgery and in the following days to monitor the recovery of the animal from surgery.
All microdialysis experiments were carried out 3-4 days after surgery in awake, freely moving mice. The day of the experiment, the inlet of the implanted dialysis probe was connected to a micro-perfusion pump (CMA/Microdialysis, Sweden) and the outlet was connected to a fraction collector. The microdialysis probe was then perfused with Ringer solution (NaCl 147 mM, KCl 3 mM, CaCl2 1.2 mM, MgC12 1.2 mM) at a constant flow rate of 1.5 μL/min and […] Four samples of dialysates were collected before pharmacological treatment to determine the baseline levels of biogenic amines and their metabolites. Mice were then treated intraperitoneally with 2.5 mg/kg of amphetamine and dialysate samples collected for further 2.5 hrs. Dialysate samples were stored frozen at −80° C. until analysis.
Frozen dialysate samples were shipped in dry ice to Brains On-Line for assay of monoamines and their metabolites. The concentrations of dopamine, DOPAC, serotonin, 5-HIAA and noradrenaline were measured by use an HPLC equipped with an electrochemical detector according to the procedure of van der Vegt et al. (2003).
Concentrations of norepinephrine, dopamine, and serotonin were determined within the same samples by HPLC separation and electrochemical detection. Samples were split into two aliquots; one used for simultaneous analysis of norepinephrine and dopamine, the other for analysis of serotonin.
Aliquots (20 μL) were injected onto the HPLC column by a refrigerated microsampler system, consisting of a syringe pump (Gilson, model 402), a multi-column injector (Gilson, model 233 XL), and a temperature regulator (Gilson, model 832). Chromatographic separation was performed on a reverse-phase 150×2.1 mm (3 μm) C18 Thermo BDS Hypersil column (Keystone Scientific). The mobile phase (isocratic) consisted of a sodium acetate buffer (4.1 g/L Na acetate) with 2.5% v/v methanol, 150 mg/L Titriplex (EDTA), 150 mg/L 1-octanesulfonic acid, and 150 mg/L tetramethylammonium chloride (pH=4.1 adjusted with glacial acetic acid). Mobile phase was run through the system at a flow rate of 0.35 mL/min by an HPLC pump (Shimadzu, model LC-10AD vp).
Norepinephrine and dopamine were detected electrochemically using a potentiostate (Antec Leyden, model Intro) fitted with a glassy carbon electrode set at +500 mV vs. Ag/AgCl (Antec Leyden). Data were analyzed by Chromatography Data System (Shimadzu, class-vp) software. Concentrations of monoamines were quantitated by external standard method. […]

[4] abbreviates: TAAR1^LacZ/LacZ mice, 2.5 mg/kg i.p.

Structures are written as SMILES. “And” between values parts separate entries of the source, which are not always exact repeats. Identical values can stand only once. “Also recorded” adds a separate entry of the source.

Consider `NCCc1ccc(O)cc1` [p-tyramine], for which the “spike frequency F of dopaminergic neurons” value is reported as 0.63±0.04 Hz in experiment [1] (TAAR1^+/+ mice, n=19, control 2.1±0.3 Hz, p<0.0001) and 16.57±1.35 Hz in experiment [1] (TAAR1^LacZ/LacZ mice, n=15, control 16.73±1.15 Hz, p>0.05). In experiment [1] (wild type (TAAR1^+/+) mice), the “effect on firing rate (spike frequency) of dopaminergic neurons, in words” value is “significant decrease; also recorded: decreases the firing rate”.
`C[C@H](N)Cc1ccccc1` [d-amphetamine]: the “locomotor activity (total distance moved) after d-amphetamine, compared to wild type littermates” value in experiment [2] (TAAR1^LacZ/LacZ mice, n=12, 2.5 mg/kg) is on record as “moved significantly more than wild type littermates; also recorded: significantly higher”. Besides, in experiment [2] (wild type (TAAR1^+/+) mice), the “locomotor activity (total distance moved) after d-amphetamine injection” value is “decreased”. Also, in experiment [3] (2.5 mg/kg i.p., n=7-8), the “amphetamine-triggered increase in extracellular dopamine, TAAR1^LacZ/LacZ relative to TAAR1^+/+” value was found to be 2.3 fold. In experiment [3] (2.5 mg/kg i.p., n=7-8, 2.5 mg/kg), the “amphetamine-triggered increase in noradrenaline (norepinephrine), TAAR1^LacZ/LacZ relative to wild type” value is 2.3 fold and 2.4 fold. For the same molecule, the “time until DOPAC levels returned to basal levels” value in experiment [3] (TAAR1^LacZ/LacZ mice) stood at 135 min. In addition, in experiment [3] (setting [4]), the “increase of extracellular dopamine level over basal” value was found to be 11 fold, the “increase of extracellular norepinephrine level over basal” value was 4.9 fold and the “increase of extracellular serotonin level” value amounted to 2.5 fold. Moreover, the “DOPAC level versus wild-type control” value in experiment [3] (TAAR1^LacZ/LacZ mice, 45 min after administration) is “significantly decreased”. The “change of extracellular DOPAC level in response to amphetamine” value in experiment [3] (both TAAR1^LacZ/LacZ and TAAR1^+/+ mice, 2.5 mg/kg i.p.) was “only a marginal decrease”. For the same molecule, the “change in levels of the 5-HT metabolite 5-HIAA” value in experiment [3] (both genotypes, 2.5 mg/kg i.p.) was “No significant changes”. In experiment [3] (wild type (TAAR1^+/+) mice, 2.5 mg/kg i.p., 2.5 mg/kg), the “change of extracellular serotonin level” value was “remained unchanged; also recorded: not in their TAAR1^+/+ littermates”.

These data come from patent publication US20070074297A1, “TAAR1 knock out animal” (priority 2005, published 2007).
